Measurements taken from patent publication US11192863B2, “Antiviral compounds and methods” (Biotron Limited, priority 2003, dated 2021).
Where “and” joins values, the source holds several entries; their conditions need not be identical. Equal values may be shown once. Where a name gives a salt, the structure may show the parent alone. Read-outs that look alike come from different tables or passages of the source.

What was measured:
Vpu protein = Vpu protein (Human immunodeficiency virus type 1 group M subtype B, UniProt P05919); details: halo of growth score between zero and six; XL1-blue E. coli with pPL-Vpu, no adenine, 37° C.
SARS-CoV E protein = SARS-CoV E protein (Severe acute respiratory syndrome coronavirus, UniProt P59637); assay type: cell-based
MHV (strain MHV-A59) = details: L929 cells

Sequence of Vpu protein (P05919 whole entry): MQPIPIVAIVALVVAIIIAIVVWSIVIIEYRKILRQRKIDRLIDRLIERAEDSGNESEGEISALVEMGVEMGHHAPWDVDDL
Sequence of SARS-CoV E protein (P59637 whole entry, looked up): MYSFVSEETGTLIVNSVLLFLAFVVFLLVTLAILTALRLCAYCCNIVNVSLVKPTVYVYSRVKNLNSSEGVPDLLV

| Structure (SMILES) | Vpu Inhibition (score/# of times tested) (Vpu protein) | SARS E protein Inhibition (score/# of times tested) (SARS-CoV E protein) | Percent reduction in Plaque number/# experiments (MHV (strain MHV-A59); 1 uM) | Percent reduction in Plaque number/# experiments (MHV (strain MHV-A59); 10 uM) | Percent reduction in Plaque number/# experiments (MHV (strain MHV-A59); 20 uM) | Toxic (noted in place of plaque reduction) (MHV (strain MHV-A59); 20 uM) |
| --- | --- | --- | --- | --- | --- | --- |
| N=C(N)NC(=O)c1ccc2ccccc2c1Br [1-bromo-2-napthoylguanidine] | 0.06/2 score | 0.25/1 score | 27/1% | 27/2% | 31/1% |  |
| N=C(N)NC(=O)/C=C/c1c(F)cccc1Cl [2-chloro-6-fluorocinnamoylguanidine] |  | 0.25/1 score | 9/1% | 84/2% | 100/1% |  |
| N=C(N)NC(=O)/C=C/c1ccc2c(c1)OCO2 [3,4-(methylenedioxy)cinnamoylguanidine] | 1.88/2 score | 1.25/1 score | 45/3% | 82/3% | 93/3% |  |
| NC(N)=NC(=O)c1nc(Cl)c(N2CCCCCC2)nc1O [3-hydroxy-5-hexamethyleneimino-amiloride] |  |  | 1/1% | 22/2% | 16/1% |  |
| COc1nc(N2CCCCCC2)c(Cl)nc1C(=O)N=C(N)N [3-methoxy-HMA, 3-methoxy-5-(N,N-Hexamethylene)-amiloride] | 0.2/4 score | 1.25/1 score | 35/1% | 31/1% | 15/1% |  |
| NC(N)=NC(=O)c1cnc2ccccc2c1 [3-quinolinoylguanidine] |  |  | 30/1% | 36/2% | 27/1% |  |
| N=C(N)NC(=O)/C=C/C=C/c1ccccc1Br [5-(2′-bromophenyl)penta-2,4-dienoylguanidine] |  |  | 57/1% | 100/1% |  | Toxic |
| CCN(c1nc(N)c(C(=O)N=C(N)N)nc1Cl)C(C)C [5-(N-Ethyl-N-isopropyl)amiloride, 5-(N-ethyl-N-isopropyl)amiloride] | 0.6/3 score | 1.07/2 score |  |  |  |  |
| CC(C)CN(C)c1nc(N)c(C(=O)N=C(N)N)nc1Cl [5-(N-Methyl-N-isobutyl)amiloride, 5-(N-methyl-N-isobutyl)amiloride] | 0.8/2 score | 3.13/2 score | 44/2% | 85/1% | 92/1% |  |
| NC(N)=NC(=O)c1nc(I)c(N)nc1N [6-Iodoamiloride] |  | 1.75/2 score | 0/1% | 21/1% | 28/1% |  |
| N=C(N)NC(=O)c1ccc2cc(Br)ccc2c1 [6-bromo-2-napthoylguanidine] |  | 0.25/1 score | 19/1% | 43/1% and 37/2% | 65/1% |  |
| N=C(N)NC(=O)/C=C/c1ccccc1[N+](=O)[O-] [(2-Nitrocinnamoyl)guanidine] | 0.4/2 score |  | 47/1% | 77/2% | 97/1% |  |
| N=C(N)NC(=O)/C=C/c1ccc([N+](=O)[O-])cc1 [(4-Nitrocinnamoyl)guanidine] |  |  | 40/3% | 75/3% | 97/1% |  |
| N=C(N)NC(=O)Cc1ccccc1 [(Phenylacetyl)guanidine] |  | 0.32/3 score | 3/1% | 22/1% | 35/1% |  |
| NC(N)=NC(=O)c1ccc2ccccc2n1 [(Quinoline-2-carbonyl)guanidine] |  | 0.41/1 score | 12/1% | 84/1% | 86/1% |  |
| Cl.NC(N)=NC(=O)c1nc(Cl)c(N)nc1N [Amiloride•HCl, reference compound] |  |  | −5/1% | 18/1% | 21/1% |  |
| N=C(N)NC(=O)c1ccccc1 [Benzyoylguanidine, Benzoylguanidine] | 0.88/2 score |  | 14/1% | 39/2% | 22/1% |  |
| N=C(NC(=O)c1cccc2ccccc12)NC(=O)c1cccc2ccccc12 [N,N′-bis(1-napthoyl)guanidine] |  |  | 35/1% | 52/2% | 58/1% |  |
| N=C(NC(=O)c1ccc2ccccc2c1)NC(=O)c1ccc2ccccc2c1 [N,N′-bis(2-napthoyl)guanidine] |  |  | 3/1% | 3/2% | 5/1% |  |
| O=C(/C=C/c1ccccc1)NC(=Nc1ccccc1)NC(=O)/C=C/c1ccccc1 [N,N′-bis-(cinnamoyl)-N″-phenylguanidine] | 0.94/2 score |  | 31/1% | 38/2% | 16/1% |  |
| N/C(=N/C(=O)c1ccc2ccccc2c1)Nc1ccccc1 [N-(2-napthoyl)-N′-phenylguanidine] |  | 0.07/2 score |  |  |  |  |
| CN(C)C(=N)NC(=O)/C=C/c1ccccc1 [N-Cinnamoyl-N′,N′-dimethylguanidine] |  |  | 24/2% | 65/3% | 92/2% |  |
| NC(N)=NC(=O)c1nc(-c2ccccc2)c(N)nc1N [N-amidino-3,5-diamino-6-phenyl-2-pyrazinecarboxamide] |  |  | 25/1% | 39/2% | 53/1% |  |
| NC(N)=NC(=O)c1nc(-c2ccccc2)c(N2CCCCCC2)nc1N [N-amidino-3-amino-5-hexamethyleneimino-6-phenyl-2-pyrazinecarboxamide] | 0.6/2 score |  | 48/1% | 52/2% | 84/1% |  |
| NC(N)=NC(=O)c1nc(Cl)c(-c2ccccc2)nc1N [N-amidino-3-amino-5-phenyl-6-chloro-2-pyrazinecarboxamide] | 0.5/11 score |  | 9/1% | 20/2% | 20/1% |  |
| O=C(/C=C/c1ccccc1)N=C(Nc1ccccc1)Nc1ccccc1 [N″-Cinnamoyl-N,N′-diphenylguanidine] |  |  | 34/1% | 72/2% | 97/1% |  |
| N/C(=N\C(=O)c1nc(Cl)c(N)nc1N)Nc1ccccc1 [Phenamil methanesulfonate salt, N-(3,5-Diamino-6-chloro-pyrazine-2-carbonyl)-N′-phenylguanidine] | 0.9/5 score | 0.13/2 score |  |  |  |  |
| N=C(N)NC(=O)/C=C/c1cccnc1 [[3-(3-Pyridyl)acryloyl]guanidine] |  | 0.67/3 score | 21/2% | 73/2% | 81/2% |  |
| C/C(=C\c1ccc(N(C)C)cc1)C(=O)NC(=N)N [[(E)-3-(4-Dimethylaminophenyl)-2-methylacryloyl]guanidine] |  |  | 37/1% | 45/1% | 56/1% |  |
